Measurements reported in publication PMC12647645, “Structural interactions of BWC0977 with Klebsiella pneumoniae topoisomerase IV and biochemical basis of its broad-spectrum activity” (Communications Biology, 2025).
Converted amounts (≈) assume the structure as drawn. “And” between values parts separate entries of the source, which are not always exact repeats. Equal entries are not always repeated.

Experiments:
[1] = target: K. pneumoniae fusion-truncated topoisomerase IV (ParE30-(Glu-Ser)-ParC55) (Klebsiella pneumoniae); test: crystal structure; ternary complex of ParEC core dimer, 26-bp DNA duplex and BWC0977 (23 uM ParEC core: 28 uM dsDNA: 200 uM BWC0977); sitting-drop vapor diffusion at 20 °C, 17% PEG 3350, 0.1 M sodium formate, 100 mM Bis-Tris propane pH 8.5; 3.05 Å
[2] = target: T1, E. coli topoisomerase IV (Escherichia coli, UniProt P0AFI2+P20083); test: biochemical; format: biochemical; conditions: E. coli topo IV, source data Fig 2A
T1 construct: purchased Inspiralis

[3] = system: P. aeruginosa; set-up: method as in ref 6 (Hameed P et al., 2024); conditions: ref 6 (Hameed P et al., 2024); cited from earlier work
[4] = target: S. aureus topoisomerase IV (Staphylococcus aureus, UniProt P0C1S7+P0C1U9); test: biochemical; conditions: source data Fig 2C; for Topo IV decatenation inhibition response: S. aureus topo IV
Method: (§1) Assays with P. aeruginosa topoisomerase IV (3 nM) were conducted in a similar buffer but with 50 mM HEPES-KOH (pH 7.9), 100 mM potassium glutamate, 6 mM magnesium acetate, 6 mM DTT, 1 mM ATP, 2 mM spermidine, and 50 μg/mL albumin. For S. aureus topoisomerase IV assay, the reactions contained 4 nM enzyme in an assay buffer composed of 50 mM Tris-HCl (pH 7.5), 5 mM MgCl₂, 5 mM DTT, 1.5 mM ATP, 350 mM potassium glutamate, and 0.05 mg/mL albumin. The procedures followed were consistent with those used in the supercoiling assays. Decatenated minicircles were resolved on 0.8% agarose gels, while the kDNA substrate remained in the wells. Gels were stained with 0.8 μg/mL ethidium bromide solution for 10 min, followed by destaining. DNA bands were visualized using a gel documentation system, and compound inhibition analysis was carried out using the same procedures described for the supercoiling assays.

[5] = system: A. baumannii; set-up: method as in ref 6 (Hameed P et al., 2024); conditions: ref 6 (Hameed P et al., 2024); cited from earlier work
[6] = system: A. baumannii ATCC 19606; test: In vitro spontaneous resistance frequency; format: cell-based; conditions: colonies selected at 4× MIC of the same compound
Method: (§2) Spontaneous resistance frequencies to BWC0977 were evaluated in E. coli ATCC 25922, P. aeruginosa ATCC 27853, and A. baumannii ATCC 19606. Mid-logarithmic phase cultures (~10^9 CFU/mL) were plated onto Luria-Bertani agar containing BWC0977 at 4×, 8×, and 16× the respective MICs. Plates were incubated at 37 °C for 24–36 h, and resistance frequencies were estimated by counting colony-forming units (CFUs) on the drug-containing plates. MICs of the isolated colonies were determined, and the gyrA, gyrB, parC, and parE genes were sequenced to assess for target-site mutations.

[7] = system: E. coli ATCC 25922; test: In vitro spontaneous resistance frequency; format: cell-based; conditions: 4× MIC
Method: as §2

[8] = system: K. pneumoniae; conditions: ref 6 (Hameed P et al., 2024); cited from earlier work
[9] = target: P. aeruginosa topoisomerase IV (Pseudomonas aeruginosa, UniProt Q9HUJ8+Q9HUK1); test: Topoisomerase IV decatenation assay, P. aeruginosa; format: biochemical; conditions: for Topo IV decatenation inhibition response: P. aeruginosa topo IV
Method: as §1, with “Topoisomerase IV decatenation reactions were performed using 2.5 nM E. coli enzyme and 60 ng kinetoplast DNA (kDNA) in an assay buffer containing 50 mM HEPES-KOH (pH 7.6), 100 mM potassium glutamate, 10 mM magnesium acetate, 10 mM DTT, 1 mM ATP, and 50 μg/mL albumin. Assays” for “Assays”

[10] = target: ParEC core (ParE-ES-ParC fusion, topoisomerase IV) (Klebsiella pneumoniae, UniProt A6TE19 400-631+=ES+A6TE12:1-488, internal_change); test: X-ray crystallography (3.05 Å); BWC0977 (one molecule intercalated between DNA bases +2 and +3); Crystallization conditions not in material; protein in 20 mM Tris-HCl pH 7.5, 100 mM NaCl, 2 mM TCEP (6 mg/mL); DNA in nuclease-free water; conditions: protein: recombinant; tags: C-terminal His6; chain copies: 2; blunt; self-complementary, 2 copies of the strand

T1 sequence (P20083 whole entry): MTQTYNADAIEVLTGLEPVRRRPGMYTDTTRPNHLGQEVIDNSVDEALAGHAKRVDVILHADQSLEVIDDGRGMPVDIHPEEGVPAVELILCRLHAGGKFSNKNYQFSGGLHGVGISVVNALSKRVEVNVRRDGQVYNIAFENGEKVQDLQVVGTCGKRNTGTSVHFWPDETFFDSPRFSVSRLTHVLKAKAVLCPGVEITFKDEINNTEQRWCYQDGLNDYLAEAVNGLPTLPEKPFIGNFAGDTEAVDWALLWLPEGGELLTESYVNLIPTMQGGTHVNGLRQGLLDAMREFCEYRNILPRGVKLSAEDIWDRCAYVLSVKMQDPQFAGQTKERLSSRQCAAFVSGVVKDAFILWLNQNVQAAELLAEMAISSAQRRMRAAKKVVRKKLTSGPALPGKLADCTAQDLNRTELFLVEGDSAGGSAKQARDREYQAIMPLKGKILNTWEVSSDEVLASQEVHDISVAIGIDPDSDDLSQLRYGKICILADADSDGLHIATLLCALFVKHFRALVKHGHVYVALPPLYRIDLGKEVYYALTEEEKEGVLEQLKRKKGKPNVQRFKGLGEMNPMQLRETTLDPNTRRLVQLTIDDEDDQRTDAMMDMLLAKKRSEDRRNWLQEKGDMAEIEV
T1 sequence (P0AFI2 whole entry): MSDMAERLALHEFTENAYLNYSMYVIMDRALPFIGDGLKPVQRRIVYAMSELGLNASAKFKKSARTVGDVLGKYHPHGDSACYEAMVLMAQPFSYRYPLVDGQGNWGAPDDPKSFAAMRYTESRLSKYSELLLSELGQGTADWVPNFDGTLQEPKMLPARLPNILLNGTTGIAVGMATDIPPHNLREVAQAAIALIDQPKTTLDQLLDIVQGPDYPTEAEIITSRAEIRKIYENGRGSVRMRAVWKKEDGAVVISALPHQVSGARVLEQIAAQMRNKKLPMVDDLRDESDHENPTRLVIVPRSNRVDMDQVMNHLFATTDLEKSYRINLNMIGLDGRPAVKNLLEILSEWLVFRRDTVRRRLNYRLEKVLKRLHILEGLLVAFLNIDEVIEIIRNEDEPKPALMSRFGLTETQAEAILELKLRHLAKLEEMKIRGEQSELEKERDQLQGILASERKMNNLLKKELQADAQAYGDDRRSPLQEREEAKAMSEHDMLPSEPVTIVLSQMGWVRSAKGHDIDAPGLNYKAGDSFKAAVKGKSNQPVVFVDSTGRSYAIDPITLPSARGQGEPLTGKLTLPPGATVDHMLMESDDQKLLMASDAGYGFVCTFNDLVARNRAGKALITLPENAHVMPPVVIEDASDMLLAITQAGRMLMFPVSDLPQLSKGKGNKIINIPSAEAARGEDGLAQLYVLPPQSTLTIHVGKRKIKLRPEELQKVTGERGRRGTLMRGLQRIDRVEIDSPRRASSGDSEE

K. pneumoniae fusion-truncated topoisomerase IV (ParE30-(Glu-Ser)-ParC55) (enzyme)
stoichiometry N [1]: 2

O=C(O)c1cn(C2CC2)c2cc(N3CCNCC3)c(F)cc2c1=O [Ciprofloxacin, reference compound]
Topo IV decatenation inhibition response ([2]; compound 2.34375 μM, 2.34375 µM): 0 | Topo IV decatenation inhibition response ([2]; compound 4.6875 μM, 4.6875 µM): 17.91 and 12.76 | inhibition at 4.6875 µM ([2]; compound 4.6875 μM, read-out: Topo IV decatenation inhibition response): 12.2% | Topo IV decatenation inhibition response ([2]; compound 9.375 μM, 9.375 µM): 51.63 and 50.29 | inhibition at 9.375 µM ([2]; compound 9.375 μM, read-out: Topo IV decatenation inhibition response): 43.7% | Topo IV decatenation inhibition response ([2]; compound 18.75 μM, 18.75 µM): 65.07 and 61.86 | inhibition at 18.75 µM ([2]; compound 18.75 μM, read-out: Topo IV decatenation inhibition response): 76.9% | Topo IV decatenation inhibition response ([2]; compound 37.5 μM, 37.5 µM): 82.71 and 68.2 and 60.49 | Topo IV decatenation inhibition response ([2]; compound 75 μM, 75 µM): 75.94 and 67.64 | inhibition at 75 µM ([2]; compound 75 μM, read-out: Topo IV decatenation inhibition response): 84.2% | Topo IV decatenation inhibition response ([2]; compound 150 μM, 150 µM): 82.92 and 70.66 and 58.85 | MIC90 against diverse global isolates [3]: 16 µg/mL (≈ 48.3 µM) | Topo IV decatenation inhibition response ([4]; compound 0.823 μM, 0.823 µM): 25.54 | Topo IV decatenation inhibition response ([4]; compound 2.469 μM, 2.469 µM): 28.07 | Topo IV decatenation inhibition response ([4]; compound 7.407 μM, 7.407 µM): 38.66 | Topo IV decatenation inhibition response ([4]; compound 22.222 μM, 22.222 µM): 96.26 | Topo IV decatenation inhibition response ([4]; compound 66.67 μM, 66.67 µM): 92.59 | Topo IV decatenation inhibition response ([4]; compound 200 μM, 200 µM): 98.71 | inhibition at 0.823 µM ([4]; read-out: Topo IV decatenation inhibition response, S. aureus topo IV, compound 0.823 μM): 21.1% | inhibition at 2.469 µM ([4]; read-out: Topo IV decatenation inhibition response, S. aureus topo IV, compound 2.469 μM): 31.3% | inhibition at 7.407 µM ([4]; read-out: Topo IV decatenation inhibition response, S. aureus topo IV, compound 7.407 μM): 27.1% | inhibition at 22.222 µM ([4]; read-out: Topo IV decatenation inhibition response, S. aureus topo IV, compound 22.222 μM): 99.1% | inhibition at 66.67 µM ([4]; read-out: Topo IV decatenation inhibition response, S. aureus topo IV, compound 66.67 μM): 97.3% | inhibition at 200 µM ([4]; read-out: Topo IV decatenation inhibition response, S. aureus topo IV, compound 200 μM): 99% | MIC90 against diverse global isolates [5]: > 32 µg/mL | MIC increase of resistant colonies [6]: 4- to 32 fold | resistance frequency [7]: 5 × 10^−9 | MIC90 against diverse global isolates [8]: > 32 µg/mL | IC50 [9]: 31.2 µM | Topo IV decatenation inhibition response ([9]; compound 0.293 μM, source data Fig 2B, 0.293 µM): 3.42 | Topo IV decatenation inhibition response ([9]; compound 9.375 μM, source data Fig 2B, 9.375 µM): 6.96 | Topo IV decatenation inhibition response ([9]; compound 37.5 μM, source data Fig 2B, 37.5 µM): 41.68 and 65.61 | Topo IV decatenation inhibition response ([9]; compound 75 μM, source data Fig 2B, 75 µM): 53.28 and 77.23 | Topo IV decatenation inhibition response ([9]; compound 150 μM, source data Fig 2B, 150 µM): 73.28 | inhibition at 0.293 µM ([9]; read-out: Topo IV decatenation inhibition response, P. aeruginosa topo IV, compound 0.293 μM, source data Fig 2B): 3.54% | inhibition at 9.375 µM ([9]; read-out: Topo IV decatenation inhibition response, P. aeruginosa topo IV, compound 9.375 μM, source data Fig 2B): 4.24% | inhibition at 150 µM ([9]; read-out: Topo IV decatenation inhibition response, P. aeruginosa topo IV, compound 150 μM, source data Fig 2B): 58.3%

B1: 26-bp palindromic DNA homoduplex (dsDNA)
DNA 1: TTACGTTGTATGATCATACAACGTAA
DNA 2: TTACGTTGTATGATCATACAACGTAA
binding result [10]: binds
